Source: PubChem BioAssay (NCI)
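48-hour exposure; five concentrations; linearly interpolated endpoints. Abbreviation: GI50, concentration required for 50% inhibition of growth. TGI is the concentration that stops growth completely.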

Assays:
Assay in all cases: NCI-60 cell line screen, 48 h
786-0 renal = tested on: 786-0 renal
HCT-15 colon = tested on: HCT-15 colon
HS 578T breast = tested on: HS 578T breast
MDA-MB-231 breast = tested on: MDA-MB-231 breast
NCI-H23 lung = tested on: NCI-H23 lung
OVCAR-5 ovarian = tested on: OVCAR-5 ovarian
SK-MEL-28 melanoma = tested on: SK-MEL-28 melanoma
SN12C renal = tested on: SN12C renal
SR leukemia = tested on: SR leukemia
SK-OV-3 ovarian = tested on: SK-OV-3 ovarian

Row | Compound | TGI (786-0 renal) | TGI (HCT-15 colon) | TGI (HS 578T breast) | TGI (MDA-MB-231 breast) | TGI (NCI-H23 lung) | TGI (OVCAR-5 ovarian) | TGI (SK-MEL-28 melanoma) | TGI (SN12C renal) | TGI (SR leukemia) | GI50 (786-0 renal) | GI50 (HCT-15 colon) | GI50 (HS 578T breast) | GI50 (MDA-MB-231 breast) | GI50 (NCI-H23 lung) | GI50 (OVCAR-5 ovarian) | GI50 (SK-MEL-28 melanoma) | GI50 (SK-OV-3 ovarian) | TGI (SK-OV-3 ovarian) | GI50 (SN12C renal) | GI50 (SR leukemia)
1 | CC(C)c1cc(C(C)C)c(Cl)c(Cl)c1O (tested in a mixture with another compound) | > 100 µM | > 100 µM | 38.5 µM | 46 µM | > 100 µM | > 100 µM | 42.4 µM | 54.4 µM | 63.4 µM |  |  |  |  |  |  |  |  |  |  | 
2 | O=C(/C=C/c1cccc(Oc2ccc(Cl)cc2)c1)c1ccccc1 | 43.6 µM | 44.6 µM | 628 µM | 89 µM | 266 µM | 83.6 µM | 107 µM | 78.4 µM | 78.7 µM | 19.9 µM | 18.7 µM | 109 µM | 29.1 µM | 80.7 µM | 26.3 µM | 29.7 µM | 195 µM | 381 µM | 28.4 µM | 22.9 µM
3 | Cc1nn2c(-c3nc4cc(Cl)c(Cl)cc4[nH]3)c(-c3ccc(F)cc3)nc2s1 | 3.33 µM | > 100 µM | > 29.6 µM | 3.74 µM | > 61.4 µM | > 100 µM | > 100 µM | > 100 µM | > 100 µM | 1.75 µM | > 100 µM | 2.78 µM | 1.25 µM | 21.7 µM | 8.98 µM | 7.4 µM | 1.98 µM | 4.46 µM | 7.92 µM | 42.9 µM
4 | N#Cc1cccc(C2C3=C(COC3=O)N(CCO)c3cc4c(cc32)CCC4)c1 (stereo not given) | > 50 µM | > 50 µM | > 13.5 µM |  | > 50 µM | > 50 µM | > 50 µM | > 50 µM | > 50 µM | 0.18 µM | 0.127 µM | 0.141 µM | 0.22 µM | 0.302 µM | 0.237 µM | 0.437 µM | 0.215 µM | > 30.5 µM | 0.261 µM | 0.0486 µM
5 | C=CC[PH+](c1ccccc1)c1ccccc1.C=CC[PH+](c1ccccc1)c1ccccc1.[Pt+2].[S-]c1ncccn1.[S-]c1ncccn1 | 48.1 µM | 10.4 µM | > 100 µM | 52.8 µM | 59 µM | 34.6 µM | 44.5 µM | 48.6 µM | 60.7 µM | 18.8 µM | 2.94 µM | 23 µM | 5.68 µM | 17.9 µM | 15.1 µM | 16.4 µM | > 100 µM | > 100 µM | 13.5 µM | 3.11 µM
6 | O=C(Nc1ccc(Br)cc1)Nc1cccc(Br)c1 | > 100 µM |  | > 100 µM | > 100 µM |  | > 100 µM | > 100 µM | > 100 µM | > 100 µM | 34.5 µM |  | > 100 µM | 30.5 µM |  | > 100 µM | 4.77 µM | 39.4 µM | > 100 µM | 71.8 µM | 11.6 µM
7 | Cc1cn2c(/C=C3/C(=O)Nc4ccc(C(=O)O)cc43)c(C)nc2s1 | > 100 µM | > 100 µM | > 100 µM | > 100 µM | > 100 µM | > 100 µM | > 100 µM | > 100 µM |  | > 100 µM | > 100 µM | > 100 µM | > 100 µM | > 100 µM | > 100 µM | > 100 µM | > 100 µM | > 100 µM | > 100 µM | 
8 | Cc1ccc(O)cc1Nc1ccnc2cc(-c3ccccn3)ccc12 | 6.66 µM | 6.79 µM | 9.03 µM | 5.6 µM | 10.9 µM | 9.21 µM | 6.79 µM | 7.51 µM |  | 2.98 µM | 2.44 µM | 2.45 µM | 1.25 µM | 3.59 µM | 2.98 µM | 3.38 µM | 1.98 µM | 6.3 µM | 2.46 µM | 
9 | NCC(Cc1ccccc1)P(=O)(O)O (stereo not given) | > 100 µM | > 100 µM | > 100 µM | > 100 µM | > 100 µM | > 100 µM | > 100 µM | > 100 µM |  |  |  |  |  |  |  |  |  | > 100 µM |  | 
10 | C=C(C)[C@@H]1CC[C@]2(C(=O)n3ccnc3)CC[C@]3(C)[C@H](CC[C@@H]4[C@@]5(C)CCCNC(C)(C)[C@@H]5CC[C@]43C)[C@@H]12 | 2.96 µM | 2.64 µM | 5.08 µM | 3.3 µM | 3.89 µM | 6.4 µM | 3.1 µM | 3.24 µM |  | 1.45 µM | 1.26 µM | 2.08 µM | 1.78 µM | 1.78 µM | 2.25 µM | 1.61 µM | 3.72 µM | 16.2 µM | 1.7 µM | 
11 | C=CC(C)(O)CCC1C(=C)C(O)CC2C(C)(C)CCCC12C (stereo not given) | 32.8 µM | 33.3 µM | 50.3 µM | 31.8 µM | 38.3 µM | 41.7 µM | 36.8 µM | 33 µM |  |  |  |  |  |  |  |  |  | > 100 µM |  | 
12 | CC1(C)N=C(N)N=C(N)N1c1ccc(OCCCCNC(=O)Nc2cccc(S(=O)(=O)F)c2)c(Cl)c1 | > 100 µM | > 100 µM | > 100 µM | > 100 µM |  | > 100 µM | > 100 µM | > 100 µM | > 100 µM | 2.75 µM | 10.6 µM | 19.3 µM | 6.57 µM |  | 2.26 µM | 6.04 µM | > 100 µM | > 100 µM | 0.577 µM | 1.02 µM
13 | CCN(CC)Cc1cc(Nc2cc(C(F)(F)F)c(C#N)c3nc4ccccc4n23)ccc1O | 9.98 µM | 2.76 µM | 12.1 µM | 5.33 µM | 8.29 µM | 23.4 µM | 17.4 µM |  | > 100 µM | 2.57 µM | 0.78 µM | 2.39 µM | 1.95 µM | 1.21 µM | 4.84 µM | 2.69 µM | 1.98 µM | 8.59 µM |  | 3.72 µM
14 | Cc1ccc(NC2=CC(=O)C(=O)c3ccccc32)c(C)c1 | 20.8 µM | 17.1 µM | 7.99 µM | 19.4 µM | 4.51 µM | 21.6 µM | 13.5 µM | 9.17 µM |  | 8.44 µM | 2.74 µM | 2.35 µM | 3.03 µM | 1.78 µM | 6.66 µM | 3.54 µM | 13.8 µM | 27.9 µM | 2.81 µM | 
